The compounds below were run against WIL-FL (Homo sapiens, UniProt P01721) (assay: Unlabeled LC Protease Sensitivity Assay (proteinase K)). Details: small molecule 10 μM, WIL-FL 5 μM, proteinase K 50 nM, 2 hours at 37° C.
Format: biochemical
Outline: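 Compound at 10 μM (1% DMSO) is mixed with 5 μM WIL-FL and 50 nM proteinase K in PBS pH 7.4/0.02% Pluronic F-127, 37 °C, 2 h, then quenched with PMSF. Remaining protein measured by SEC-UPLC peak area at 280 nm and expressed as fold protection relative to vehicle and no-protease controls.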

Row | SMILES | Protection (fold protection of LC from protease)
1 | CCN(CC)c1ccc2c(C)c(CCN3C(=O)NC4(CCN(C(=O)c5cncnc5)C4)C3=O)c(=O)oc2c1 (stereo not drawn) [Compound 209, 3-(2-(7-(diethylamino)-4-methyl-2-oxo-2H-chromen-3-yl)ethyl)-7-(pyrimidine-5-carbonyl)-1,3,7-triazaspiro[4.4]nonane-2,4-dione] | B (3 ≤ B < 0.6)
2 | CC(C)CC1NC(=O)N(CC(=O)Nc2ccc(C(F)(F)F)cc2)C1=O (single isomer, unassigned) [Compound 22] | A (A < 0.3))
3 | Cc1c(CN2CCOCC2)c(=O)oc2cc(OC(C)c3ccccc3)ccc12 (stereo not drawn) [Compound 152, 4-methyl-3-(morpholinomethyl)-7-(1-phenylethoxy)-2H-chromen-2-one] | B (3 ≤ B < 0.6)
4 | CCN(CC)c1ccc2c(C)c(CCC(=O)NCCc3ccccc3)c(=O)oc2c1 [Compound 64, 3-(7-(diethylamino)-4-methyl-2-oxo-2H-chromen-3-yl)-N-phenethylpropanamide] | A (A < 0.3))
5 | CCN(CC)c1ccc2c(C)c(CCOC(=O)N3CCN(c4ccccn4)CC3)c(=O)oc2c1 [Compound 114, 2-(7-(diethylamino)-4-methyl-2-oxo-2H-chromen-3-yl)ethyl 4-(pyridin-2-yl)piperazine-1-carboxylate] | A (A < 0.3))
6 | CCN(CC)c1ccc2c(C)c(CC(=O)O)c(=O)oc2c1 [Compound 54, 2-(7-(diethylamino)-4-methyl-2-oxo-2H-chromen-3-yl)acetic acid] | A (A < 0.3))
7 | CCN(CC)c1ccc2c(C)c(CCOC(=O)N3CCC(Cc4cccnc4)CC3)c(=O)oc2c1 [Compound 118, 2-(7-(diethylamino)-4-methyl-2-oxo-2H-chromen-3-yl)ethyl 4-(pyridin-3-ylmethyl)piperidine-1-carboxylate] | B (3 ≤ B < 0.6)
8 | CCN(CC)c1ccc2c(C)c(CCC(=O)O)c(=O)oc2c1 [Compound 62, 3-(7-(diethylamino)-4-methyl-2-oxo-2H-chromen-3-yl)propanoic acid] | A (A < 0.3))
9 | CCN(CC)c1ccc2c(C)c(CCN3C(=O)NC4(CCNC4)C3=O)c(=O)oc2c1 (stereo not drawn) [Compound 179, 3-(2-(7-(diethylamino)-4-methyl-2-oxo-2H-chromen-3-yl)ethyl)-1,3,7-triazaspiro[4.4]nonane-2,4-dione] | B (3 ≤ B < 0.6)
10 | CCN(CC)c1ccc2c(C)c(CCNC(=O)NCc3ccc4ccccc4n3)c(=O)oc2c1 [Compound 293, 1-(2-(7-(diethylamino)-4-methyl-2-oxo-2H-chromen-3-yl)ethyl)-3-(quinolin-2-ylmethyl)urea] | B (3 ≤ B < 0.6)
11 | CCCN(CC)c1ccc2c(C)cc(=O)oc2c1 [Compound 275, 7-(ethyl(propyl)amino)-4-methyl-2H-chromen-2-one] | A (A < 0.3))
12 | CCN(CC)c1ccc2c(C)c(CC(=O)N(C)C)c(=O)oc2c1 [Compound 61, 2-(7-(diethylamino)-4-methyl-2-oxo-2H-chromen-3-yl)-N,N-dimethylacetamide] | A (A < 0.3))
13 | CCN(CC)c1ccc2c(CCCOC(=O)NCc3cccc(CCC(=O)O)c3)cc(=O)oc2c1 [Compound 305, 3-(3-((((3-(7-(diethylamino)-2-oxo-2H-chromen-4-yl)propoxy)carbonyl)amino)methyl)phenyl)propanoic acid] | A (A < 0.3))
14 | C=C(C)CN(CC(=C)C)c1ccc2c(C)cc(=O)oc2c1 [Compound 243, 7-(bis(2-methylallyl)amino)-4-methyl-2H-chromen-2-one] | A (A < 0.3))
15 | C#CCN(CC=C)c1ccc2c(C)cc(=O)oc2c1 [Compound 259, 7-(allyl(prop-2-yn-1-yl)amino)-4-methyl-2H-chromen-2-one] | A (A < 0.3))
16 | CCCNc1ccc2c(C)cc(=O)oc2c1 [Compound 242, 4-methyl-7-(propylamino)-2H-chromen-2-one] | A (A < 0.3))
17 | CCN(CC)c1ccc2c(C)c(CCOC(=O)NCc3ccncc3)c(=O)oc2c1 [Compound 86, 2-(7-(diethylamino)-4-methyl-2-oxo-2H-chromen-3-yl)ethyl (pyridin-4-ylmethyl)carbamate] | B (3 ≤ B < 0.6)
18 | CCN(CC)c1ccc2c(C)c(CCN3C(=O)NC4(CCN(c5ncc(C#N)cn5)CC4)C3=O)c(=O)oc2c1 [Compound 189, 2-(3-(2-(7-(diethylamino)-4-methyl-2-oxo-2H-chromen-3-yl)ethyl)-2,4-dioxo-1,3,8-triazaspiro[4.5]decan-8-yl)pyrimidine-5-carbonitrile] | A (A < 0.3))
19 | CC(C)CC1NC(=O)N(CC(=O)Nc2ccc(C(F)(F)F)cc2)C1=O (single isomer, unassigned) [Compound 23] | A (A < 0.3))
20 | CCN(CC)c1ccc2c(C)c(CCOC(=O)Nc3ccc(NC(C)=O)cn3)c(=O)oc2c1 [Compound 103, 2-(7-(diethylamino)-4-methyl-2-oxo-2H-chromen-3-yl)ethyl (5-acetamidopyridin-2-yl)carbamate] | B (3 ≤ B < 0.6)
21 | CCN(CC)c1ccc2c(C)c(CCNC(=O)CCc3ccccc3)c(=O)oc2c1 [Compound 70, N-(2-(7-(diethylamino)-4-methyl-2-oxo-2H-chromen-3-yl)ethyl)-3-phenylpropanamide] | A (A < 0.3))
22 | Cc1cc(=O)oc2cc(NC(C)c3ccccc3)ccc12 (stereo not drawn) [Compound 39, 4-methyl-7-((1-phenylethyl)amino)-2H-chromen-2-one] | A (A < 0.3))
23 | Cc1cc(=O)oc2cc(NCCCF)ccc12 [Compound 251, 7-((3-fluoropropyl)amino)-4-methyl-2H-chromen-2-one] | A (A < 0.3))
24 | C#CCNC(=O)c1ccc2c(C)cc(=O)oc2c1 [Compound 267, 4-methyl-2-oxo-N-(prop-2-yn-1-yl)-2H-chromene-7-carboxamide] | A (A < 0.3))
25 | CCN(CC)c1ccc2c(C)c(CCOC(=O)N3CCN(c4nn[nH]n4)CC3)c(=O)oc2c1 [Compound 115, 2-(7-(diethylamino)-4-methyl-2-oxo-2H-chromen-3-yl)ethyl 4-(2H-tetrazol-5-yl)piperazine-1-carboxylate] | A (A < 0.3))

Continued, values first:

Row | Protection (fold protection of LC from protease) | SMILES
26 | C (C ≥ 0.6) | CCN(CC)c1ccc2c(C)c(CCN3C(=O)NC4(CCN(c5ncccn5)CC4)C3=O)c(=O)oc2c1 [Compound 185, 3-(2-(7-(diethylamino)-4-methyl-2-oxo-2H-chromen-3-yl)ethyl)-8-(pyrimidin-2-yl)-1,3,8-triazaspiro[4.5]decane-2,4-dione]
27 | B (3 ≤ B < 0.6) | CCN(CC)c1ccc2c(C)c(CCNC(=O)NCc3cccc(CCC(=O)O)c3)c(=O)oc2c1 [Compound 307, 3-(3-((3-(2-(7-(diethylamino)-4-methyl-2-oxo-2H-chromen-3-yl)ethyl)ureido)methyl)phenyl)propanoic acid]
28 | A (A < 0.3)) | C#CCN(CCC=C)c1ccc2c(C)cc(=O)oc2c1 [Compound 263, 7-(but-3-en-1-yl(prop-2-yn-1-yl)amino)-4-methyl-2H-chromen-2-one]
29 | A (A < 0.3)) | C#CCN(CCC)c1ccc2c(C)cc(=O)oc2c1 [Compound 260, 4-methyl-7-(prop-2-yn-1-yl(propyl)amino)-2H-chromen-2-one]
30 | A (A < 0.3)) | CCN(CC)c1ccc2c(C)c(CCOC(=O)N3CCN(c4cnccn4)CC3)c(=O)oc2c1 [Compound 109, 2-(7-(diethylamino)-4-methyl-2-oxo-2H-chromen-3-yl)ethyl 4-(pyrazin-2-yl)piperazine-1-carboxylate]
31 | B (3 ≤ B < 0.6) | CCN(CC)c1ccc2c(C)c(CCOC(=O)NCc3ccccn3)c(=O)oc2c1 [Compound 85, 2-(7-(diethylamino)-4-methyl-2-oxo-2H-chromen-3-yl)ethyl (pyridin-2-ylmethyl)carbamate]
32 | A (A < 0.3)) | Cc1cc(=O)oc2cc(OC(C)c3cnccn3)ccc12 (stereo not drawn) [Compound 173, 4-methyl-7-(1-(pyrazin-2-yl)ethoxy)-2H-chromen-2-one]
33 | A (A < 0.3)) | Cc1cc(=O)oc2cc(OC(c3ccccc3)c3ccccc3)ccc12 [Compound 42, 7-(benzhydryloxy)-4-methyl-2H-chromen-2-one]
34 | A (A < 0.3)) | CCN(CC)c1ccc2c(CCCOC(=O)NCc3cccc(CCC(=O)OC)c3)cc(=O)oc2c1 [Compound 306, Methyl 3-(3-((((3-(7-(diethylamino)-2-oxo-2H-chromen-4yl)propoxy)carbonyl)amino)methyl)phenyl)propanoate]
35 | B (3 ≤ B < 0.6) | Cc1cc(=O)oc2cc(OCC(C)c3ccccc3)ccc12 (stereo not drawn) [Compound 43, 4-methyl-7-(2-phenylpropoxy)-2H-chromen-2-one]
36 | A (A < 0.3)) | Cc1cc(=O)oc2cc(N(C)C)ccc12 [Compound 266, 7-(dimethylamino)-4-methyl-2H-chromen-2-one]
37 | C (C ≥ 0.6) | CCN(CC)c1ccc2c(C)c(CCOC(=O)NCc3cccc(-c4ncc[nH]4)c3)c(=O)oc2c1 [Compound 153, 2-(7-(diethylamino)-4-methyl-2-oxo-2H-chromen-3-yl)ethyl (3-(1H-imidazol-2-yl)benzyl)carbamate]
38 | A (A < 0.3)) | CCCN(CCC)c1ccc2c(C)cc(=O)oc2c1 [Compound 241, 7-(dipropylamino)-4-methyl-2H-chromen-2-one]
39 | A (A < 0.3)) | C=C(C)CNc1ccc2c(C)cc(=O)oc2c1 [Compound 244, 4-methyl-7-((2-methylallyl)amino)-2H-chromen-2-one]
